Entries after “also recorded” stand apart in the source; their conditions may differ. Like-named read-outs stand apart in the source and are kept apart here.
How the values were obtained:
[1] = system: patients with HIV and cancer; conditions: cited from earlier work
[2] = system: patients with Kaposi sarcoma; conditions: in vivo
[3] = Steady-state plasma pharmacokinetics, cycle 1 day 8; format: in vivo, human
patients with HCC = conditions: phase III trial in HCC; cited from earlier work
IL‐12p40 = assay: Serum factors, V-Plex assay, baseline vs end of cycle 1; format: in vivo, human; conditions: baseline to end of cycle 1; p = .002
bFGF = assay: as above; format: in vivo, human; conditions: baseline to end of cycle 1; p = .018
[4] = system: patients with HIV and HCC; conditions: 27 patients with HIV and HCC, 400 mg sorafenib twice daily, retrospective; cited from earlier work
Kaposi sarcoma = assay: KS response assessment; format: in vivo, human

## CCN(CC)CCNC(=O)c1c(C)[nH]c(/C=C2\C(=O)Nc3ccc(F)cc32)c1C [sunitinib]
[1]; HIV patients not taking ritonavir
  tolerability: tolerated standard dosing
[1]; patients receiving ritonavir
  tolerability: higher toxicities at lower doses
[1]; patients with HIV and cancer
  effect of ritonavir on sunitinib and active metabolite: decreases in the sunitinib active metabolite but not the parent drug

## CNC(=O)c1cc(Oc2ccc(NC(=O)Nc3ccc(Cl)c(C(F)(F)F)c3)cc2)ccn1 [Sorafenib]
[2]
  patients with grade 3 toxicities that did not meet DLT criteria: five
[3]; 200 mg dose at steady state
  CMAX and AUC0-12h of sorafenib compared with literature: within reported ranges
[3]; cohort on ritonavir vs not on ritonavir
  effect of ritonavir on steady-state AUCTAU (exposure) of sorafenib: not significantly affected by ritonavir; also recorded: only modestly affected
Patients with HCC
  diarrhea, grade 3–4 AE: 8%
  hypertension, grade 3–4 AE: 2%
  palmar-plantar erythrodysesthesia syndrome, grade 3–4 AE: 8%
IL‐12p40
  change in serum IL-12p40: statistically significant decrease
bFGF
  change in serum bFGF: potential trend towards decreased bFGF
[4]
  diarrhea, grade 3–4 AE: 15%
  hypertension, grade 3–4 AE: 11%
  palmar-plantar erythrodysesthesia syndrome, grade 3–4 AE: 15%
Kaposi sarcoma; 2/7, 95% CI 4%–71%
  ORR in patients evaluable for response: 29%
Kaposi sarcoma; 2/10, 95% CI 3%–56%
  ORR in all patients: 20%
Kaposi sarcoma; range 1–5, 21-day cycles
  Median duration of SD: 4 cycles

## CNC(=O)c1cc(Oc2ccc(NC(=O)Nc3ccc(Cl)c(C(F)(F)F)c3)cc2)cc[n+]1[O-] [Sorafenib N-Oxide, Sorafenib N‐oxide]
[3]; trend, p = .08
  decrease of AUCTAU of sorafenib-N-oxide in patients receiving ritonavir: 3.8 fold

From paper PMC5423501 (The Oncologist, 2017)
